# Data as given in ChEMBL document CHEMBL5058564, “EUbOPEN Chemogenomics Library 2 (Incucyte)” (2022).
# What was measured:
# Assay type in all cases: toxicity, cell-based
# [1] = tested on: U2OS; experiment: Incucyte cell viability with U2OS; details: human, 10 µM, compound concentration 10 uM
# [2] = tested on: HEK-293T; experiment: Incucyte cell viability with HEK293T; details: human, 10 µM, compound concentration 10 uM
# [3] = tested on: Fibroblast; experiment: Incucyte cell viability with human fibroblast; details: 10 µM, compound concentration 10 uM
# [4] = 0 h, replicate number 1, timepoint 0 hours
# [5] = 0 h, replicate number 2, timepoint 0 hours
# [6] = 12 h, replicate number 1, timepoint 12 hours
# [7] = 12 h, replicate number 2, timepoint 12 hours
# [8] = 18 h, replicate number 1, timepoint 18 hours
# [9] = 18 h, replicate number 2, timepoint 18 hours
# [10] = 24 h, replicate number 1, timepoint 24 hours
# [11] = 24 h, replicate number 2, timepoint 24 hours
# [12] = 6 h, replicate number 1, timepoint 6 hours
# [13] = 6 h, replicate number 2, timepoint 6 hours
# Note: unitless GR value; below 1 slowed growth and below 0 cell loss.
Compound,"Growth Rate [1, 4]","Growth Rate [1, 5]","Growth Rate [1, 6]","Growth Rate [1, 7]","Growth Rate [1, 8]","Growth Rate [1, 9]","Growth Rate [1, 10]","Growth Rate [2, 12]","Growth Rate [2, 6]","Growth Rate [2, 7]","Growth Rate [2, 8]","Growth Rate [2, 9]","Growth Rate [2, 10]","Growth Rate [2, 11]","Growth Rate [3, 5]","Growth Rate [3, 12]","Growth Rate [1, 12]","Growth Rate [3, 6]","Growth Rate [3, 10]","Growth Rate [3, 13]",other results
COc1ccc2nc3ccc(OC)cc3c(SCCCN)c2c1.Cl,-0.75,-0.3,0.7,0.2,0.19,0.16,0.14,-0.57,-0.16,0.33,0.19,0.22,0.28,0.19,0.39,0.94,–,–,–,–,"Growth Rate [1, 11]: 0.21; Growth Rate [2, 4]: -0.05; Growth Rate [2, 5]: -0.25; Growth Rate [2, 13]: 0.26; Growth Rate [3, 4]: 0.15"
CCCCCC(O)/C=C/[C@H]1C(=O)CC(O)C1C/C=C\CCCC(=O)O (some centres undefined),-0.23,0.05,0.59,0.84,0.66,0.78,0.72,0.68,0.59,–,0.69,–,0.58,–,-0.28,-0.61,0.59,0.36,0.54,–,"Growth Rate [1, 11]: 0.87; Growth Rate [2, 4]: 0.99; Growth Rate [3, 4]: 0.39; Growth Rate [3, 8]: 0.47"
Nc1nc(CC(=O)Nc2ccc(CCNC[C@H](O)c3ccccc3)cc2)cs1 [MIRABEGRON],0.18,–,0.95,–,0.54,–,–,–,–,–,–,–,–,–,0.45,0.68,–,0.9,–,0.56,"Growth Rate [2, 4]: 0.8; Growth Rate [2, 5]: 0.62; Growth Rate [3, 4]: 0.35"
O=C1COc2nccc(-c3ccccc3F)c2CN1Cc1cc(C(F)(F)F)cc(C(F)(F)F)c1,-0.7,–,–,0.96,0.97,0.94,0.88,–,–,0.89,0.98,0.88,–,–,–,0.17,–,0.8,0.73,–,"Growth Rate [1, 11]: 0.93; Growth Rate [2, 13]: 0.77; Growth Rate [3, 8]: 0.58"
Cc1cc(=O)n(C)c2cc(N3C(=O)CC[C@H](NS(=O)(=O)CC(C)C)[C@H]3c3ccc(Cl)cc3)ccc12,-0.56,-0.09,0.8,0.96,0.5,–,0.7,-0.08,0.15,0.9,0.21,0.76,0.18,0.8,–,-0.91,0.78,-0.73,-0.65,-0.68,"Growth Rate [2, 5]: 0.38; Growth Rate [3, 7]: -0.53; Growth Rate [3, 8]: -0.76; Growth Rate [3, 9]: -0.4; Growth Rate [3, 11]: -0.38"
Cl.O=C1CC[C@@]2(O)[C@H]3Cc4ccc(O)c5c4[C@@]2(CCN3CC2CC2)[C@H]1O5 [NALTREXONE HYDROCHLORIDE],0.86,-1,0.39,0.91,0.67,–,0.83,–,–,–,–,–,–,–,0.63,0.38,-0.02,–,0.6,–,"Growth Rate [1, 13]: 0.81; Growth Rate [2, 5]: 0.83; Growth Rate [2, 13]: 0.84; Growth Rate [3, 4]: 0.67"
CCNC(=O)[C@H]1O[C@@H](n2cnc3c(N)ncnc32)[C@H](O)[C@@H]1O.O,-0.43,–,0.61,–,0.71,–,0.74,0.74,0.85,–,0.8,–,0.76,0.81,0.3,–,0.86,–,–,0.46,"Growth Rate [2, 4]: -0.1; Growth Rate [2, 5]: -0.27; Growth Rate [3, 4]: -0.1; Growth Rate [3, 7]: 0.87"
CCc1nnc(NS(=O)(=O)c2ccc(NC(=S)NC(=O)/C=C/c3ccc(F)cc3)cc2)s1,0.07,-0.11,0.77,–,0.81,0.86,0.86,0.64,0.53,–,0.58,–,0.67,0.73,-0.01,–,0.55,0.7,0.62,0.82,"Growth Rate [2, 5]: 0.59; Growth Rate [3, 7]: 0.53; Growth Rate [3, 9]: 0.53; Growth Rate [3, 11]: 0.61"
CN(c1ncccc1CNc1ccnc(-c2cc3cc(Cl)ccc3[nH]2)n1)S(C)(=O)=O,-0.74,1,0.52,0.71,0.58,0.74,0.61,-0.71,-0.48,-0.31,-0.36,-0.25,-0.24,-0.09,–,-0.63,0.59,-0.43,0.15,-0.2,"Growth Rate [1, 11]: 0.7; Growth Rate [2, 13]: -0.53; Growth Rate [3, 7]: -0.15; Growth Rate [3, 8]: -0.12; Growth Rate [3, 9]: -0.08; Growth Rate [3, 11]: 0.04"
CN(CCN1CCC(OC(=O)Nc2ccccc2-c2ccccc2)CC1)C(=O)c1ccc(CN2CCC(C(N)=O)CC2)cc1 [REVEFENACIN],0.88,0.11,–,–,–,–,–,0.97,0.95,0.59,0.98,0.74,0.9,0.78,0.62,–,–,0.73,0.56,0.71,"Growth Rate [3, 7]: 0.65; Growth Rate [3, 8]: 0.65; Growth Rate [3, 9]: 0.9; Growth Rate [3, 11]: 0.97"
CC[C@H]1CN2CCc3cc(OC)c(OC)cc3[C@@H]2C[C@@H]1C[C@H]1NCCc2cc(OC)c(OC)cc21 [EMETINE],–,-1,0.43,0.49,0.21,0.25,0,-0.64,-0.71,-0.68,-0.56,-0.65,-0.45,-0.51,0.68,-0.4,0.25,-0.71,-0.47,-0.75,"Growth Rate [1, 13]: 0.89; Growth Rate [1, 11]: 0.17; Growth Rate [2, 5]: 0.89; Growth Rate [2, 13]: -0.77; Growth Rate [3, 7]: -0.61; Growth Rate [3, 8]: -0.63; Growth Rate [3, 9]: -0.61; Growth Rate [3, 11]: -0.61"
CC(C)(C)c1cc(NC(=O)Nc2ccc(-c3cn4c(n3)sc3cc(OCCN5CCOCC5)ccc34)cc2)no1 [QUIZARTINIB],–,–,–,0.51,–,0.52,–,-0.18,–,-0.06,–,0.17,–,0.22,0.43,–,0.41,–,–,–,"Growth Rate [1, 11]: 0.65; Growth Rate [2, 4]: 0.2; Growth Rate [3, 4]: -0.84; Growth Rate [3, 7]: 1; Growth Rate [3, 9]: 0.89; Growth Rate [3, 11]: 0.78"
C[C@@H](O[C@H]1OCCN(Cc2n[nH]c(=O)[nH]2)[C@H]1c1ccc(F)cc1)c1cc(C(F)(F)F)cc(C(F)(F)F)c1 [APREPITANT],-0.52,-1,–,0.65,0.9,0.69,–,0.91,0.57,0.97,0.77,0.84,0.74,–,–,0.71,0.29,0.39,0.28,-0.37,"Growth Rate [1, 13]: 0.58; Growth Rate [1, 11]: 0.79; Growth Rate [2, 13]: 0.66; Growth Rate [3, 7]: -0.12; Growth Rate [3, 8]: 0.18; Growth Rate [3, 9]: 0.17; Growth Rate [3, 11]: 0.5"
